Data: ChEMBL document CHEMBL1128837, “The evaluation of 2- and 6-substituted carbocyclic nucleosides as building blocks for antisense oligonucleotides” (Bioorg Med Chem Lett, 1995)

Key:
[1] = Melting temperature (Tm) of the modified DNA/RNA duplex at 48 degree Celsius (5'-GCGtttttttttGCG-3'); No cooperative melting observed
[2] = Difference in melting temperature (Tm) between the modified DNA/RNA duplex and the unmodified wild type (WT) duplex per modification at 52.3 degree Celsius (5'-TTTTtCTCTCTCTCT-3'); format: functional
[3] = Effect of compound on the nuclease resistance of 5'-d(TCC AGG TGT CCG TTT C)-3' in 10% heat-activated fetal calf serum (FCS) expressed as t1/2; format: functional
[4] = Melting temperature (Tm) of the modified DNA/RNA duplex at 48 degree Celsius (5'-GCGttttttttttGCG-3')
[5] = Effect of compound on the nuclease resistance of wild type 5'-d(TCC AGG TGT CCG TTT C)-3' in 10% heat-activated fetal calf serum (FCS) expressed as t1/2; format: functional
[6] = Difference in melting temperature (Tm) between the modified DNA/RNA duplex and the unmodified wild type (WT) duplex per modification at 61.8 degree Celsius (5'-tCCAGGtGtCCGCAtC-3'); format: functional
[7] = Difference in melting temperature (Tm) between the modified DNA/RNA duplex and the unmodified wild type (WT) duplex per modification at 61.7 degree Celsius (5'-CTCGTACttttCCGGTCC-3'); format: functional
[8] = Difference in melting temperature (Tm) between the modified DNA/RNA duplex and the unmodified wild type (WT) duplex per modification at 63.9 degree Celsius (5'-CTCGTACCtTTCCGGTCC-3'); format: functional
[9] = Ratio of effect of compound on the nuclease resistance of full length oligonucleotide to that of wild type in 10% heat-activated fetal calf serum (FCS); format: functional
[10] = Difference in melting temperature (Tm) between the modified DNA/RNA duplex and the unmodified wild type (WT) duplex per modification at 48 degree Celsius (5'-GCGttttttttttGCG-3'); format: functional
[11] = Difference in melting temperature (Tm) between the modified DNA/RNA duplex and the unmodified wild type (WT) duplex per modification at 52.3 degree Celsius (5-tttttc*tc*tc*tc*tc*T-3); format: functional
[12] = Difference in melting temperature (Tm) between the modified DNA/RNA duplex and the unmodified wild type (WT) duplex per modification at 52.3 degree Celsius (5-tttttC*tc*tc*tc*tc*T-3); format: functional
[13] = Difference in melting temperature (Tm) between the modified DNA/RNA duplex and the unmodified wild type (WT) duplex per modification at 63.9 degree Celsius (5-ctcGtacctttccGGtcC-3; format: functional
[14] = Stability against degradation by 3'-exonucleases for the sequence 5'-d(TCC AGG TGT CCG TTT C)-3' in 10% heat-activated fetal calf serum (FCS); format: functional
[15] = Difference in melting temperature (Tm) between the modified DNA/RNA duplex and the unmodified wild type (WT) duplex per modification at 52.3 degree Celsius (5'-tttttctctctctT-3'); format: functional

SMILES	Tm [1] [°C]	ΔTm [2]	T1/2 [3] [h]	Tm [4] [°C]	T1/2 [5] [h]	ΔTm [6]	ΔTm [7]	ΔTm [8]	Ratio [9]	ΔTm [10]	ΔTm [11]	ΔTm [12]	ΔTm [13]	ΔTm [14]	ΔTm [15]
Cc1cn([C@H]2C[C@H](O)[C@@H](CO)[C@@H]2OCCCc2ccccc2)c(=O)[nH]c1=O	< 20	-4	> 48	< 20	2	-2.8	-1.7	-2.8	> 24	–	–	–	–	–	–
Cc1cn([C@H]2C[C@H](O)[C@@H](CO)[C@@H]2OCCCCN)c(=O)[nH]c1=O	–	-1.1	> 48	–	2	-1.4	–	-1.8	> 24	-1.9	–	–	–	–	–
Cc1cn([C@H]2C[C@H](O)[C@@H](CO)[C@@H]2O)c(=O)[nH]c1=O	–	-0.8	14	–	2	-0.4	0.2	–	7	0.8	0.4	–	–	–	–
CO[C@H]1[C@H](CO)[C@@H](O)C[C@@H]1n1cc(C)c(=O)[nH]c1=O	–	-2	20	–	2	-1.3	-0.7	0.2	10	-0.9	–	–	–	–	–
COCCOCCO[C@H]1[C@H](CO)[C@@H](O)C[C@@H]1n1cc(C)c(=O)[nH]c1=O	–	-1.8	–	–	–	–	–	–	–	–	–	-1.9	–	–	–
Cc1cn([C@H]2C[C@H](O)[C@@H](CO)O2)c(=O)[nH]c1=O	–	–	–	–	–	–	–	0.2	–	0.25	–	–	0.3	2.5	0.4
CO[C@@H]1[C@H](O)[C@@H](CO)C[C@H]1n1cc(C)c(=O)[nH]c1=O	–	1.1	–	–	–	–	-0.7	-1.9	–	-1	–	–	–	–	–
COCCOCCOCCO[C@@H]1[C@H](O)[C@@H](CO)C[C@H]1n1cc(C)c(=O)[nH]c1=O	–	0.2	–	< 20	–	-1.1	-2.6	-2.9	–	–	–	–	–	–	–
